Measured values: PubChem BioAssay AID1963984 (Molecular Pharmacology Branch, DTP, NCI, 2024)
pIC50: −log10 of the molar value.

Test system: 233499-124-R-J3-PDC spheroids with HUVEC/MSC, viability
Assay: Anticancer human tumor 233499-124-R-J3-PDC patient-derived colon adenocarcinoma cell line growth inhibition [PI3K]
Conditions: for pIC50: curve of first compound; for viability, T/C: stronger effect = lower value; active = viability on the fitted dose curve at most 10% of control; inactive = the rest
Method in brief: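 Tumor cells were combined with HUVEC and MSCs into spheroids, then dosed with PI3K-inhibitor combinations over half-log ranges capped near clinical Cmax or 10 microM.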

[1] = second compound 0.00316 µM, first compound 0.0316 µM
[2] = second compound 0.00316 µM, first compound 0.1 µM
[3] = second compound 0.00316 µM, first compound 0.316 µM
[4] = second compound 0.00316 µM, first compound 1 µM
[5] = second compound 0.00316 µM, first compound 3.16 µM
[6] = second compound 0.00316 µM, first compound 10 µM
[7] = second compound 0.01 µM, first compound 0.0316 µM
[8] = second compound 0.01 µM, first compound 0.1 µM
[9] = second compound 0.01 µM, first compound 0.316 µM
[10] = second compound 0.01 µM, first compound 1 µM
[11] = second compound 0.01 µM, first compound 3.16 µM
[12] = second compound 0.01 µM, first compound 10 µM
[13] = second compound 0.0316 µM, first compound 0.0316 µM
[14] = second compound 0.0316 µM, first compound 0.1 µM
[15] = second compound 0.0316 µM, first compound 0.316 µM
[16] = second compound 0.0316 µM, first compound 1 µM
[17] = second compound 0.0316 µM, first compound 3.16 µM
[18] = second compound 0.0316 µM, first compound 10 µM
[19] = second compound 0.1 µM, first compound 0.0316 µM
[20] = second compound 0.1 µM, first compound 0.1 µM
[21] = second compound 0.1 µM, first compound 0.316 µM
[22] = second compound 0.1 µM, first compound 1 µM
[23] = second compound 0.1 µM, first compound 3.16 µM
[24] = second compound 0.1 µM, first compound 10 µM
[25] = second compound 0.316 µM, first compound 0.0316 µM
[26] = second compound 0.316 µM, first compound 0.1 µM
[27] = second compound 0.316 µM, first compound 0.316 µM
[28] = second compound 0.316 µM, first compound 1 µM
[29] = second compound 0.316 µM, first compound 3.16 µM
[30] = second compound 0.316 µM, first compound 10 µM
[31] = second compound 1 µM, first compound 0.0316 µM
[32] = second compound 1 µM, first compound 0.1 µM
[33] = second compound 1 µM, first compound 0.316 µM
[34] = second compound 1 µM, first compound 1 µM
[35] = second compound 1 µM, first compound 3.16 µM
[36] = second compound 1 µM, first compound 10 µM
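Note: spheroids exposed to agents for seven days before readout.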
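Throughout, for viability, T/C: percent viability relative to DMSO vehicle control taken as 100%.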

C[C@@H](NC(=O)c1ncnc(N)c1Cl)c1ncc(C(=O)Nc2cc(C(F)(F)F)c(Cl)cn2)s1 + COc1c(OCCCN2CCOCC2)ccc2c3n(c(=NC(=O)c4cnc(N)nc4)nc12)CCN3
< 5.00: pIC50 (second compound 0.00316 µM) | pIC50 (second compound 0.01 µM) | pIC50 (second compound 0.0316 µM) | pIC50 (second compound 0.1 µM)
> 7.50: pIC50 (second compound 0.316 µM) | pIC50 (second compound 1 µM)
inactive: viability, T/C [1] 97.6% | viability, T/C [2] 127% | viability, T/C [3] 126% | viability, T/C [4] 103% | viability, T/C [5] 120% | viability, T/C [6] 104% | viability, T/C [7] 94.1% | viability, T/C [8] 103% | viability, T/C [9] 105% | viability, T/C [10] 117% | viability, T/C [11] 121% | viability, T/C [12] 123% | viability, T/C [13] 113% | viability, T/C [14] 107% | viability, T/C [15] 109% | viability, T/C [16] 96.1% | viability, T/C [17] 107% | viability, T/C [18] 106% | viability, T/C [19] 85.6% | viability, T/C [20] 79.4% | viability, T/C [21] 85.5% | viability, T/C [22] 69.8% | viability, T/C [23] 97.9% | viability, T/C [24] 99.3% | viability, T/C [25] 44.8% | viability, T/C [26] 31.8% | viability, T/C [27] 21% | viability, T/C [28] 37.7% | viability, T/C [29] 45.6% | viability, T/C [30] 31.2% | viability, T/C [31] 6.68% | viability, T/C [32] 10.7% | viability, T/C [33] 13.8% | viability, T/C [34] 7.94% | viability, T/C [35] 20% | viability, T/C [36] 1.67%

Cn1ncc(Cl)c1-c1cc(C(=O)NC(CN)Cc2cccc(F)c2)sc1Cl (stereo unspecified) + COc1c(OCCCN2CCOCC2)ccc2c3n(c(=NC(=O)c4cnc(N)nc4)nc12)CCN3
> 7.50: pIC50 (second compound 0.316 µM) | pIC50 (second compound 1 µM)
inactive: viability, T/C [1] 70.1% | viability, T/C [2] 88.1% | viability, T/C [3] 83.2% | viability, T/C [4] 83.7% | viability, T/C [5] 58.9% | viability, T/C [6] 19.6% | viability, T/C [7] 81.6% | viability, T/C [8] 97.4% | viability, T/C [9] 98.8% | viability, T/C [10] 77.8% | viability, T/C [11] 46.8% | viability, T/C [12] 46.1% | viability, T/C [13] 81.9% | viability, T/C [14] 80.1% | viability, T/C [15] 78.8% | viability, T/C [16] 59.6% | viability, T/C [17] 36.3% | viability, T/C [18] 20.5% | viability, T/C [19] 61.7% | viability, T/C [20] 62.8% | viability, T/C [21] 56.9% | viability, T/C [22] 37.7% | viability, T/C [23] 36.7% | viability, T/C [24] 16.1% | viability, T/C [25] 21.4% | viability, T/C [26] 42.5% | viability, T/C [27] 19.2% | viability, T/C [28] 34.3% | viability, T/C [29] 31.9% | viability, T/C [30] 11.3%
6.29: pIC50 (second compound 0.1 µM)
5.79: pIC50 (second compound 0.0316 µM)
5.39: pIC50 (second compound 0.00316 µM)
active: viability, T/C [31] 8.63% | viability, T/C [32] 9.16% | viability, T/C [33] 15.4% | viability, T/C [34] 10.9% | viability, T/C [35] 7.03% | viability, T/C [36] 1.23%
5.56: pIC50 (second compound 0.01 µM)

Cn1ncnc1[C@H]1c2n[nH]c(=O)c3cc(F)cc(c23)N[C@@H]1c1ccc(F)cc1 + COc1c(OCCCN2CCOCC2)ccc2c3n(c(=NC(=O)c4cnc(N)nc4)nc12)CCN3
> 9.50: pIC50 (second compound 0.316 µM) | pIC50 (second compound 1 µM)
active: viability, T/C (second compound 1 µM, first compound 0.000316 µM) 4.32% | viability, T/C (second compound 1 µM, first compound 0.001 µM) 8.27% | viability, T/C (second compound 1 µM, first compound 0.00316 µM) 5.26% | viability, T/C (second compound 1 µM, first compound 0.01 µM) 9.55% | viability, T/C [31] 11.9% | viability, T/C [32] 11.5%
< 7.00: pIC50 (second compound 0.00316 µM) | pIC50 (second compound 0.01 µM) | pIC50 (second compound 0.0316 µM) | pIC50 (second compound 0.1 µM)
inactive: viability, T/C (second compound 0.00316 µM, first compound 0.000316 µM) 97.7% | viability, T/C (second compound 0.00316 µM, first compound 0.001 µM) 111% | viability, T/C (second compound 0.00316 µM, first compound 0.00316 µM) 97.2% | viability, T/C (second compound 0.00316 µM, first compound 0.01 µM) 111% | viability, T/C [1] 90.2% | viability, T/C [2] 85.9% | viability, T/C (second compound 0.01 µM, first compound 0.000316 µM) 90.1% | viability, T/C (second compound 0.01 µM, first compound 0.001 µM) 92.3% | viability, T/C (second compound 0.01 µM, first compound 0.00316 µM) 90% | viability, T/C (second compound 0.01 µM, first compound 0.01 µM) 78.2% | viability, T/C [7] 90.9% | viability, T/C [8] 66.9% | viability, T/C (second compound 0.0316 µM, first compound 0.000316 µM) 94% | viability, T/C (second compound 0.0316 µM, first compound 0.001 µM) 81.4% | viability, T/C (second compound 0.0316 µM, first compound 0.00316 µM) 89.2% | viability, T/C (second compound 0.0316 µM, first compound 0.01 µM) 83.9% | viability, T/C [13] 80.9% | viability, T/C [14] 79.6% | viability, T/C (second compound 0.1 µM, first compound 0.000316 µM) 81.1% | viability, T/C (second compound 0.1 µM, first compound 0.001 µM) 75.3% | viability, T/C (second compound 0.1 µM, first compound 0.00316 µM) 75.9% | viability, T/C (second compound 0.1 µM, first compound 0.01 µM) 76.7% | viability, T/C [19] 65.9% | viability, T/C [20] 66.7% | viability, T/C (second compound 0.316 µM, first compound 0.000316 µM) 34.7% | viability, T/C (second compound 0.316 µM, first compound 0.001 µM) 27.6% | viability, T/C (second compound 0.316 µM, first compound 0.00316 µM) 36.6% | viability, T/C (second compound 0.316 µM, first compound 0.01 µM) 33.9% | viability, T/C [25] 28.4% | viability, T/C [26] 35%
